Common to all, as to type: in vivo
Data set [1] deals with db/db mice. The experiment in a line: Blood glucose level after repeated oral administration for three weeks in db/db mice. Conditions: G5: Diabex 400 mg/kg/day oral. Here is the method: In this experiment, the test material lyophilizate of a mycelial culture of Irpex lacteus KACC 83046BP was orally administered to the db/db mice, which are an animal model of diabetes, for three weeks and examined for hypoglycemic effect. This test was conducted in the Local Food Institute of Gimcheon University.
For use in tests, sterile water for injection (excipient) was used as a negative control while Diabex tablet ([…], 500 mg) commercially available from Dai Han Pharm. Co., Ltd. (Kyeonggi-do) was used as a positive control. A test substance was divided into three groups: high-, medium-, and low-dose groups, which were prepared in suspension by adding the same amount of the test substance to different amounts of the sterile water for injection.
Blood glucose levels were measured once a week for three weeks during the experiment. In order to objectively measure blood glucose levels, all experimental animals were blocked from eating feed 6 hours before blood glucose measurement on the day of blood glucose measurement. Blood glucose levels were measured using a portable blood glucose meter (Accu-Check Performa/USA).

Data set [2] deals with db/db mice. The experiment in a line: Oral glucose tolerance test (OGTT) in db/db mice. The note with it: G5: Diabex 400 mg/kg oral. Here is the method:
(1) The OGTT measures the body's ability to use glucose.
(2) After 6 days of acclimatization, OGTT test animals were fasted for 16 hours before OGTT (water provided).
(3) Blood glucose was measured 30 minutes before administration of the test substance and once again 30 minutes later, that is, just before glucose administration.
(4) At 30, 60, 90, 120, and 240 min after administration of oral glucose at a dose of 2 g/10 mL/kg, blood was taken from tail veins and measured for glucose levels using a blood glucose meter (Accu-Check Performa).

In data set [3] the test system is db/db mice. Put plainly: Histopathological examination of pancreas (H&E) in db/db mice. The note with it: G5: Diabex 400 mg/kg/day oral, three weeks. Here is the method: All the experimental animals were anesthetized by inhalation with CO2 and autopsied by laparotomy, and blood was collected from the posterior vena cava. After blood collection, the animals were killed by excision of the abdominal aorta and posterior vena cava and exsanguination. For histopathological examination, hematoxylin & eosin (H&E) staining was conducted to measure numbers and diameters of pancreatic islets and proportions of zymogen granules per unit area of exocrine pancreatic portions.

The subject of data set [4] is db/db mice. Put plainly: Hemato-biochemical examination in db/db mice. Conditions: G5: Diabex 400 mg/kg/day oral, three weeks. The protocol:
Of the blood collected for clinical pathology on the day of the end of the experiment, about 200 μL was used for analyzing glycated hemoglobin (HbA1c) while the remainder was left for 30 min or longer at room temperature in a vacutainer tube containing a clot activator and then centrifuged at 3000 rpm for 10 min. The serum obtained by centrifugation was transferred to a new tube and subjected to hemato-biochemical examination.
Using a hemato-biochemical analyzer, whole blood and sera which had been stored separately were subjected to hemato-biological examination for total cholesterol (TCHO), aspartate aminotransferase (AST), high-density lipoprotein (HDL), low-density lipoprotein (LDL), alanine aminotransferase (ALT), and glycated hemoglobin (HbA1c).

Data set [5] concerns db/db mice. Put plainly: Blood insulin and c-peptide measurement (ELISA) in db/db mice. The note with it: three weeks. The source says: C-peptide is a substance that is secreted when proinsulin, a precursor of insulin, is degraded and released. The peptide, although lacking bioactivity, accounts for the secretion state of insulin. In addition, with a long half-life, C-peptide is used as an index to evaluate insulin secretion. The sera stored in separation were quantitatively assayed for insulin and c-peptide, using an ELISA kit (Shibayagi, AKRIN-011T and AKRCP-031).

Consider metformin phosphate [Diabex], for which the Blood glucose level is listed as 365 ± 24 mg/dL in the data set on db/db mice [1] (Day 1 (first day of administration)), 371 ± 12 mg/dL with db/db mice [1] (Week 1), 452 ± 13 mg/dL in the data set on db/db mice [1] (Week 2) and 436 ± 11 mg/dL with db/db mice [1] (Week 3). The “Blood glucose level (OGTT)” value in the data set with db/db mice [2] (0 min (just before glucose 2 g/kg)) was 385 ± 33 mg/dL; in the data set with db/db mice [2] (30 min after glucose), 421 ± 29 mg/dL; in the data set on db/db mice [2] (60 min after glucose), 343 ± 12 mg/dL; in the data set on db/db mice [2] (90 min after glucose), 246 ± 26 mg/dL; with db/db mice [2] (120 min after glucose), 208 ± 11 mg/dL; in the data set with db/db mice [2] (240 min after glucose), 174 ± 22 mg/dL. Besides, the “Blood glucose level (OGTT)” value in the data set on db/db mice [2] (−30 min (before administration)) stood at 265 ± 11 mg/dL. In the data set on db/db mice [3], this substance had a Diameter of islet of 126.25 ± 5.3 μm. In addition, in the data set on db/db mice [3], the “No. of pancreatic Islets” value turned out to be 6.25 ± 0.1 islets/cm^2. Also, the Zymogen granules with db/db mice [3] is 41.39 ± 0.7 %/mm^2 of exocrine pancreas. In the data set on db/db mice [4], this substance had an ALT of 72.1 ± 4.5 U/L. This substance gave an AST in the data set on db/db mice [4] of 116.5 ± 4.6 U/L. In the data set on db/db mice [4], this substance yielded an HDL of 88.2 ± 4.2 mg/dL. The same substance yielded a HbA1c in the data set with db/db mice [4] of 6.8 ± 0.2 %. The substance also displayed an LDL in the data set on db/db mice [4] of 25.9 ± 2.7 mg/dL. In addition, the TCHO in the data set with db/db mice [4] was determined as 116.7 ± 3.2 mg/dL. Besides, the “Blood insulin compared to the negative control (G1)” value in the data set with db/db mice [5] (G5 (Diabex 400 mg/kg) oral) is “significant decrease”. The “Blood C-peptide level” value in the data set with db/db mice [5] (G5: Diabex 400 mg/kg/day oral) is 459.7 ± 82.3 pg/mL. In the data set on db/db mice [5] (G5: Diabex 400 mg/kg/day oral), the Blood insulin level amounted to 1.96 ± 0.39 ng/mL.

These data come from patent US20240207337A1, “MYCELIAL CULTURE OF Irpex lacteus AND COMPOSITION COMPRISING SAME AS ACTIVE INGREDIENT FOR PREVENTION AND TREATMENT OF DIABETES MEILLITUS” (LONGRUNN MEDICAL FOOD PTE. LTD., priority 2021, published 2024).
